# According to patent publication US7381554B2, “UDP-N-acetylglucosamine: galactose-β1,3-N-acetylgalactosamine-α-R/N-acetylglucosamine-β1,3-N-acetylgalactosamine-α-R (GlcNAc to GalNAc) β1,6-N-acetylglucosaminyltransferase, C2/4GnT” (Glycozym ApS, priority 1998, dated 2008):
# Assays:
# C2GnT = biological target: T1, C2GnT (Homo sapiens, UniProt Q02742); assay: C2GnT GlcNAc-transferase activity assay with acceptor substrates; assay type: biochemical; settings: partially purified media of infected High Five cells, background subtracted; for Substrate specificity: C2GnT activity, 2 mM: acceptor substrate 2 mM; for Substrate specificity: C2GnT activity, 10 mM: acceptor substrate 10 mM
# T1 construct: Plasmids pAcGP67-C2/4GnT-sol and pAcGP67-C2GnT-sol were co-transfected with; gp67 secretion signal of vector pAcGP67 (own knowledge of the vector); made in house; host or cells: Sf9 cells (baculovirus, culture supernatant)
# T1 sequence (Q02742 33-428 limits assumed): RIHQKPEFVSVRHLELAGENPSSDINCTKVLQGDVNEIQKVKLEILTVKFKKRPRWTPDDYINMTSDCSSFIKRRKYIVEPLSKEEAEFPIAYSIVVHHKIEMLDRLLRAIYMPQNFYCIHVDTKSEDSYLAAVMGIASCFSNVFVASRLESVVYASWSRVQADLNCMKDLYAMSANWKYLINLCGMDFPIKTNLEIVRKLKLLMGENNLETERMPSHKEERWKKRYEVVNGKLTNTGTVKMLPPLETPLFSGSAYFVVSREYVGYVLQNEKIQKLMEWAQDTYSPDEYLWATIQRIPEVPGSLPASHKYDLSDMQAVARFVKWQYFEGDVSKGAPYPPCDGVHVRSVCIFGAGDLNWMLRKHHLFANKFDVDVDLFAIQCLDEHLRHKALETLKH
# Procedure: (§1) Controls included the pAcGP67-GalNAc-T3-sol (15). The kinetic properties were determined with partially purified enzymes expressed in High Five™ cells. Partial purification was performed by consecutive chromatography on Amberlite IRA-95, DEAE-Sephacryl and CM-Sepharose essentially as described (16).
# (§2) An expression construct designed to encode amino acid residues 31-438 of C2/4GnT was prepared by PCR using P1 DNA, and the primer pair TSHC55 (5′-[…]-3′) (SEQ ID NO:8) and TSHC45 (SEQ ID NO:5) (FIG. 2). The PCR product was cloned into the EcoRI site of pAcGP67A (PharMingen), and the insert was fully sequenced. Plasmids pAcGP67-C2/4GnT-sol and pAcGP67-C2GnT-sol were co-transfected with Baculo-Gold™ DNA (PharMingen) as described previously (14). Recombinant Baculo-virus were obtained after two successive amplifications in Sf9 cells grown in serum-containing medium, and titers of virus were estimated by titration in 24-well plates with monitoring of enzyme activities. Controls included the pAcGP67-GalNAc-T3-sol (15).
# (§3) Standard assays were performed using culture supernatant from infected cells in 50 μl reaction mixtures containing 100 mM MES […], 10 mM EDTA, 10 mM 2-Acetamido-2-deoxy-D-glucono-1,5-lacton, 180 μM UDP-[^14C]-GlcNAc (6,000 cpm/nmol) (Amersham Pharmacia Biotech), and the indicated concentrations of acceptor substrates (Sigma and Toronto Research Laboratories Ltd., see Table I for structures). Semi-purified C2/4GnT was assayed in 50 μl reaction mixtures containing 100 mM MES (pH 7), 5 mM EDTA, 90 μM UDP-[^14C]-GlcNAc (3,050 cpm/nmol) (Amersham Pharmacia Biotech), and the indicated concentrations of acceptor substrates. Reaction products were quantified by chromatography on Dowex AGI-X8.
# C2/4GnT = biological target: T2, C2/4GnT (Homo sapiens, UniProt O95395); assay: C2/4GnT GlcNAc-transferase activity assay with acceptor/donor substrates; assay type: biochemical; settings: for Substrate specificity: C2/4GnT activity, 2 mM: acceptor substrate 2 mM; for Substrate specificity: C2/4GnT activity, 2 mM / Substrate specificity: C2/4GnT activity, 10 mM: partially purified media of infected High Five cells, background subtracted; for Substrate specificity: C2/4GnT activity, 10 mM: acceptor substrate 10 mM; for C2/4GnT activity with acceptor substrate (in words): as acceptor substrate; for C2/4GnT activity with donor substrate (in words): as donor substrate, data not shown; for Substrate inhibition of C2/4GnT enzyme activity: high acceptor concentrations up to 20 mM
# T2 construct: An expression construct designed to encode amino acid residues 31-438 of C2/4GnT was prepared by PCR using P1 DNA; gp67 secretion signal of vector pAcGP67A (own knowledge of the vector); made in house; host or cells: Sf9 cells (culture supernatant, standard assays); High Five cells (partially purified enzyme, kinetics)
# T2 sequence (O95395 31-438): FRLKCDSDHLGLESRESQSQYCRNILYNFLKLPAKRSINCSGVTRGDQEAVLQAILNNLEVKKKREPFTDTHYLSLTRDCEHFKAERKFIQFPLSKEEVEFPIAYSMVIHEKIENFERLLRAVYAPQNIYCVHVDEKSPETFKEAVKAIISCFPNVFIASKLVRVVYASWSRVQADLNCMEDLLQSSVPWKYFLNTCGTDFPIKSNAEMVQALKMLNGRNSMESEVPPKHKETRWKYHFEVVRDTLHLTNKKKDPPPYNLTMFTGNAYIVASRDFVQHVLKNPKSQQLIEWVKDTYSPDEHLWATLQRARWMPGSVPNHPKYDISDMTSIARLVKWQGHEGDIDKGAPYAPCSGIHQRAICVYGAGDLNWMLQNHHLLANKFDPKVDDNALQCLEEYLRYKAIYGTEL
# Procedure: as §2, with “sequenced.” for “sequenced. Plasmids”, “was” for “and pAcGP67-C2GnT-sol were”, “activities.” for “activities. Controls included the pAcGP67-GalNAc-T3-sol (15).”
# as §1, §2, §3
"Substrate specificity: C2GnT activity, 2 mM (C2GnT)","Substrate specificity: C2GnT activity, 10 mM (C2GnT)","Substrate specificity: C2/4GnT activity, 2 mM (C2/4GnT)","Substrate specificity: C2/4GnT activity, 10 mM (C2/4GnT)",C2/4GnT activity with acceptor substrate (in words) (C2/4GnT),C2/4GnT activity with donor substrate (in words) (C2/4GnT),Substrate inhibition of C2/4GnT enzyme activity (C2/4GnT),SMILES
<0.1 nmol/h/mg,<0.1 nmol/h/mg,<0.1 nmol/h/mg,<0.1 nmol/h/mg,no activity,–,–,CC(=O)N[C@H]1[C@H](O[C@H]2[C@@H](O)[C@@H](CO)O[C@@H](O[C@H]3[C@H](O)[C@@H](O)C(O)O[C@@H]3CO)[C@@H]2O)O[C@H](CO)[C@@H](O[C@@H]2O[C@H](CO)[C@H](O)[C@H](O)[C@H]2O)[C@@H]1O (mixture of isomers) [lacto-N-neo-tetraose]
<0.1 nmol/h/mg,<0.1 nmol/h/mg,<0.1 nmol/h/mg,<0.1 nmol/h/mg,–,–,–,CC(=O)N[C@H]1C(O)O[C@H](CO)[C@H](O)[C@@H]1O (stereo partly drawn) [D-GalNAc]
–,–,–,–,–,no activity,–,CC(=O)N[C@H]1[C@@H](OP(=O)(O)OP(=O)(O)OC[C@H]2O[C@@H](n3ccc(=O)[nH]c3=O)[C@H](O)[C@@H]2O)O[C@H](CO)[C@H](O)[C@@H]1O [UDP-GalNAc]
–,–,–,–,–,strict donor substrate specificity,–,"CC(=O)N[C@H]1[C@@H](OP(=O)(O)OP(=O)(O)OC[C@H]2O[C@@H](n3ccc(=O)[nH]c3=O)[C@H](O)[C@@H]2O)O[C@H](CO)[C@@H](O)[C@@H]1O [UDP-GlcNAc, UDP-N-acetylglucosamine]"
<0.1 nmol/h/mg,<0.1 nmol/h/mg,<0.1 nmol/h/mg,<0.1 nmol/h/mg,no activity,–,–,CC(=O)N[C@H]1[C@@H](Oc2ccc([N+](=O)[O-])cc2)O[C@H](CO)[C@H](O)[C@@H]1O [α-D-GalNAc-1-p-Nph]
16.2 nmol/h/mg,23.6 nmol/h/mg,16.1 nmol/h/mg,21.8 nmol/h/mg,–,–,No substrate inhibition,CC(=O)N[C@H]1[C@@H](Oc2ccc([N+](=O)[O-])cc2)O[C@H](CO)[C@H](O)[C@@H]1O[C@@H]1O[C@H](CO)[C@H](O)[C@H](O)[C@H]1O [β-D-Gal-(1-3)-α-D-GalNAc-1-p-Nph]
9.6 nmol/h/mg,19.0 nmol/h/mg,2.8 nmol/h/mg,7.3 nmol/h/mg,–,–,–,CC(=O)N[C@@H]1[C@@H](O[C@@H]2O[C@H](CO)[C@H](O)[C@H](O)[C@H]2O)[C@@H](O)[C@@H](CO)O[C@@H]1O [β-D-Gal-(1-3)-α-D-GalNAc]
<0.1 nmol/h/mg,<0.1 nmol/h/mg,5.2 nmol/h/mg,7.4 nmol/h/mg,–,–,No substrate inhibition,CC(=O)NC1C(OC2C(O)C(CO)OC(Oc3ccc([N+](=O)[O-])cc3)C2NC(C)=O)OC(CO)C(O)C1O [β-D-GlcNAc-(1-3)-α-D-GalNAc-1-p-Nph]
<0.1 nmol/h/mg,<0.1 nmol/h/mg,<0.1 nmol/h/mg,<0.1 nmol/h/mg,no activity,–,–,CO[C@@H]1O[C@H](CO)[C@H](O)[C@H](O[C@@H]2O[C@H](CO)[C@@H](O)[C@H](O)[C@H]2NC(C)=O)[C@H]1O [β-D-GlcNAc-(1-3)-β-D-Gal-1-Me]
